Laboratory results reported in the SangsterLogP compilation.
Each block holds one compound with its values, some of them ahead of it.

Assays:
[1] = method code SF-AS, from Frater-Schröder, M.; Alder, S.; Zbinden, G. (1976). Neurotoxic effects of pyridoxine and analogs in rats. Proc. Eur. Soc. Toxicol, 17, 277-284.; conditions: pH 7.4
[2] = not given; remark: listed apart in the source
[3] = not given; remark: listed apart in the source
[4] = method code SF-GLC, from DOI: 10.1016/0045-6535(83)90264-3
[5] = not given; remark: listed apart in the source
[6] = method code SF-HPLC, from DOI: 10.1248/cpb.43.1894
[7] = method code SF-RC, from DOI: 10.1016/s0026-895x(25)10639-1, PMID: 1170492
[8] = method code SF-GLC, from DOI: 10.1007/bf00343116, PMID: 4026577
[9] = method code SF-HPLC, from Blakemore, C.; Brown, H.; Durant, J.; Emmett, C.; Ganellin, R.; Parsons, E.; Rasmussen, C. (1980). SK&F 92994: a new histamine H2-receptor antagonist. COMMUNICATIONS: Part II. Br. J. Pharmacol., …
[10] = not given; remark: listed apart in the source
[11] = method code SF-RC, from DOI: 10.1248/cpb.38.3099, PMID: 2085895; conditions: pH 7.4
[12] = method code SF, from DOI: 10.1002/em.2850190108, PMID: 1732104
[13] = method code SF-MS, from DOI: 10.1016/j.fluid.2014.01.017; conditions: pH 7.6
[14] = method code SF-AS, from DOI: 10.2307/3577276, PMID: 2913608
[15] = method code SF-EPR, from DOI: 10.1016/0003-9861(82)90097-2, PMID: 6284047; conditions: pH 7.4
[16] = not given; remark: listed apart in the source
[17] = method code SF-HPLC, from DOI: 10.1002/jps.2600841008, PMID: 8801331
[18] = not given; remark: listed apart in the source
[19] = method code SF-RC, from DOI: 10.1182/blood.v76.11.2389.bloodjournal76112389, PMID: 2257308; conditions: pH 7.4
[20] = method code SF-AS, from DOI: 10.1016/j.bmc.2008.07.057, PMID: 18706818; conditions: pH 7.4
[21] = method code SF-AS, from DOI: 10.1021/jm00162a004, PMID: 3023612
[22] = method code SF-AS, from DOI: 10.1016/j.ejmech.2003.11.003, PMID: 14987836
[23] = not given; remark: listed apart in the source
[24] = not given; remark: listed apart in the source
[25] = method code SF-AS, from DOI: 10.1021/jm00069a002, PMID: 8355246; conditions: pH 7.4
[26] = method code SF-AS, from DOI: 10.1021/jm00299a013, PMID: 5458368
[27] = method code SF-AS, from DOI: 10.1007/bf02922495
[28] = method code SF-AS, from DOI: 10.1016/j.bmc.2007.10.035, PMID: 18029186; conditions: pH 7.4
[29] = method code SF-AS, from DOI: 10.1016/0005-2728(86)90252-5, PMID: 3015209; conditions: pH 7.2
[30] = method code SF-GLC, from DOI: 10.1016/0147-6513(82)90020-3, PMID: 7106034
[31] = method code SF, from DOI: 10.1002/ps.2780340212; conditions: pH 7.0
[32] = method code SF, from DOI: 10.1016/0378-5173(87)90234-1; conditions: pH 7.4
[33] = method code SF-C, from DOI: 10.1021/ja00901a033
[34] = method code SF-HPLC, from DOI: 10.1016/0378-5173(88)90220-7; conditions: pH 7.4
[35] = method code SF-RC, from PMID: 3794812
[36] = method code SF-AS, from DOI: 10.1002/jhet.5570150704
[37] = pH 1.0

Structure (SMILES): COc1cccc(C(=O)O)c1
- logP: 1.9

Structure (SMILES): Cc1ncc(CO)c(CO)c1O
- logD [1]: -0.77

Structure (SMILES): CN(C)c1cc[n+]([O-])cc1
- logP [2]: -0.9

Structure (SMILES): O=C(O)c1c(C(=O)O)c(C(=O)O)c(C(=O)O)c(C(=O)O)c1C(=O)O
- logP [4]: -1.45

Structure (SMILES): O=C(NCCO)c1cccnc1
- logP [5]: -0.11

Structure (SMILES): N#CCCCCCC#N
- logP [8]: 0.05

Structure (SMILES): CN(Cc1ccc(Br)cc1)N=O
- logP [9]: 1.57

Structure (SMILES): N#CCCCCCCC#N
- logP [8]: 0.59

Structure (SMILES): N#CC(C#N)=NNc1ccc(C(=O)CCl)cc1
- logD ([10]; pH 3.0): 2.15

Structure (SMILES): CC(=O)c1ccccc1[N+](=O)[O-]
- logP [12]: 1.53

Structure (SMILES): COC(=O)c1ccccc1NS(=O)(=O)c1[nH]cnc1[N+](=O)[O-]
- logP [14]: 1.6

Structure (SMILES): O=[N+]([O-])c1cccc2cccc([N+](=O)[O-])c12
- logP [12]: 2.52

Structure (SMILES): CCOC(=O)C1=C(COCCN)NC(C)=C(C(=O)OC)C1c1ccccc1Cl (centres undefined)
- logD ([17]; pH 11.0): 3.09

Structure (SMILES): NS(=O)(=O)c1nnc(-c2ccccc2Cl)s1
- logP [18]: 1.43

Structure (SMILES): Oc1cccc2ncccc12
- logD ([17]; pH 7.4): 2.13

Structure (SMILES): CN(Cc1cccc(Br)c1)N=O
- logP [9]: 1.65

Structure (SMILES): Cc1ccc(C=C(C#N)C#N)o1
- logP [27]: 2.03

Structure (SMILES): Cc1ncc(CO)c(C=O)c1O
- logD [1]: -0.82

Structure (SMILES): NS(=O)(=O)c1cc2c(cc1Cl)NC(C(Cl)Cl)NS2(=O)=O (centres undefined)
- logP [23]: 0.64

Structure (SMILES): NS(=O)(=O)c1nnc(NS(=O)(=O)c2ccccc2)s1
- logP [18]: 0.22

Structure (SMILES): NC(=O)c1ccccc1C(N)=O
- logP: 1.08

Structure (SMILES): O=S1OCC2C(CO1)C1(Cl)C(Cl)=C(Cl)C2(Cl)C1(Cl)Cl (centres undefined)
- logP [30]: 3.83

Structure (SMILES): CC(C)(C)C(=O)C(Oc1ccc(Cl)cc1)n1cncn1 (centres undefined)
- logD [31]: 2.9

Structure (SMILES): CC(=O)c1ccc(OCC(=O)O)cc1
- logP [33]: 1.08

Structure (SMILES): CNS(=O)(=O)c1ccc(C)cc1
- logD [34]: 1.28

Structure (SMILES): N#CC(C#N)=NNc1ccc([N+](=O)[O-])cc1Cl
- logD [29]: 2

Structure (SMILES): O=C(O)COc1ccc(Br)cc1
- logP [33]: 2.45

Structure (SMILES): COc1ccc(N)cc1
- logP [3]: 0.98

Structure (SMILES): Cc1nc(-c2ccccn2)no1
- logP [36]: 0.79

Structure (SMILES): Cc1ccc(NC(N)=O)cc1
- logD [31]: 0.8

Structure (SMILES): O=C(O)C(c1ccc(Cl)cc1)c1ccc(Cl)cc1
- logD [37]: 4.64

Structure (SMILES): N#CC(C#N)=Cc1ccc(Br)o1
- logP [27]: 2.28

Structure (SMILES): CC(Oc1cc(Cl)c(Cl)cc1Cl)C(=O)O (centres undefined)
- logD [37]: 3.8

Structure (SMILES): O=[N+]([O-])C1NC=CN1C1OC(CI)C(O)C1O (centres undefined)
- logP [24]: 0.7

Structure (SMILES): N#CC(C#N)=NNc1cccc(O)c1
- logD ([10]; pH 7.2): 1.48

Structure (SMILES): [O-][n+]1ccc(-c2ccccc2)cc1
- logP [2]: 0.93

Structure (SMILES): CSc1nc2ccccc2s1
- logP [4]: 3.15

Structure (SMILES): Cc1ccc(S(=O)(=O)N(C)C(=O)c2ccccc2)cc1
- logD [34]: 2.95

Further lines, results first:

- logP [3]: 1.25
Structure (SMILES): CC(=O)c1ccccc1N

- logP [6]: 3.59
Structure (SMILES): CSC(=S)C1=C(SC)CCC1

- logP [7]: 1.4
Structure (SMILES): CNC(=S)NN=C(C)CSCC(C)=NNC(=S)NC

- logD [11]: 2.66
Structure (SMILES): CNC(=S)NN=C(C)CC(C)=NNC(=S)NC

- logD [13]: 2.06
Structure (SMILES): CCCC/C=C/C=O

- logD [15]: 1
Structure (SMILES): CCC1(C)OCC(C)(C)N1[O] (centres undefined)

- logD [11]: 0.67
Structure (SMILES): CNC(=S)N/N=C(C)\C(C)=N/NC(=S)NC

- logP [16]: -0.82
Structure (SMILES): Cn1cnc2c1c(=O)[nH]c(=O)n2C

- logD [19]: -0.52
Structure (SMILES): COCCn1ccc(=O)c(O)c1C

- logD [20]: -0.68
Structure (SMILES): CCCC1(C(N)=O)CCC=[N+]1[O-] (centres undefined)

- logP [21]: -0.1
Structure (SMILES): [O-][N+]1=CCCC12CCCC2

- logP [22]: -0.19
Structure (SMILES): COC(=O)[C@@H]1CCCN1S(=O)(=O)N(CCCl)N=O

- logP [23]: 0.42
Structure (SMILES): CC(CS)C(=O)N1CCC[C@H]1C(=O)O (some centres undefined)

- logP [24]: -0.05
Structure (SMILES): O=[N+]([O-])c1nccn1C1OCC(I)CC1O (centres undefined)

- logD [15]: 1.81
Structure (SMILES): CC1(C)CCCC(C)(C)N1O

- logP [21]: 0.04
Structure (SMILES): CCCCC1(C)CCC=[N+]1[O-] (centres undefined)

- logD [25]: 0.05
Structure (SMILES): CCc1[nH]ccc(=O)c1O

- logD [13]: 2.53
Structure (SMILES): CCCCCCCC=O

- logP [26]: 0.23
Structure (SMILES): CCCS(=O)(=O)CCn1c([N+](=O)[O-])cnc1C

- logD [25]: -0.1
Structure (SMILES): CCCCNC(=O)CCn1ccc(=O)c(O)c1C

- logD [28]: -1.25
Structure (SMILES): CN(CCO)C(=O)Cn1ccnc1[N+](=O)[O-]

- logD [29]: 2.1
Structure (SMILES): Cc1cccc(C)c1NN=C(C#N)C#N

- logP [26]: -1
Structure (SMILES): Cc1ncc([N+](=O)[O-])n1CCCS(C)(=O)=O

- logP [30]: 3.88
Structure (SMILES): CCN(CC)C(=S)SSC(=S)N(CC)CC

- logD [28]: -1.16
Structure (SMILES): CC(=O)OC[C@H]1O[C@H](OCCN(C)C(=O)Cn2ccnc2[N+](=O)[O-])[C@@H](OC(C)=O)[C@@H](OC(C)=O)[C@@H]1OC(C)=O

- logP [5]: 0.59
Structure (SMILES): CC(C)NC(=O)c1cccnc1

- logD [32]: -0.21
Structure (SMILES): CCC(=O)n1c(=O)[nH]cc(F)c1=O

- logD [19]: -0.3
Structure (SMILES): CCc1c(O)c(=O)ccn1C

- logP [22]: 1.03
Structure (SMILES): O=NN(CCCl)S(=O)(=O)N1CCCCC1

- logP [7]: 0.7
Structure (SMILES): CC(CSCC(C)=NNC(N)=S)=NNC(N)=S

- logP [35]: 0.16
Structure (SMILES): COCC(O)Cn1c(Br)cnc1[N+](=O)[O-] (centres undefined)

- logD [20]: -0.18
Structure (SMILES): CCCCC1(C(N)=O)CCC=[N+]1[O-] (centres undefined)

- logP [16]: 0.29
Structure (SMILES): CC(=O)CCCCn1c(=O)c2c(ncn2C)n(C)c1=O

- logP [36]: 0.24
Structure (SMILES): CNC(=O)OCc1cccc(COC(=O)NC)n1

- logP [6]: 4.1
Structure (SMILES): COc1ccc(C(=CSC)C(=S)SC)cc1

- logP [35]: 1.02
Structure (SMILES): COCC(O)Cn1c([N+](=O)[O-])nc(Br)c1Br (centres undefined)
